Earlier results as cited in patent US12336975B2, “Composition and methods for treatment or prophylaxis of coronavirus and cancers” ([…], priority 2020, dated 2025).

Tested on: COVID-19
Conditions: preventive and treatment approach for COVID-19

For `CCN(CCO)CCCC(C)Nc1ccnc2cc(Cl)ccc12` (centres unmarked) [hydroxychloroquine], the “efficacy against COVID-19” value is given as “no effective results” and the “reported side effect rate” value is given as 40.1%.
